Laboratory results: ChEMBL document CHEMBL4052785, “Discovery of (R)-5-(benzo[d][1,3]dioxol-5-yl)-7-((1-(vinylsulfonyl)pyrrolidin-2-yl)methyl)-7H-pyrrolo[2,3-d]pyrimidin-4-amine (B6) as a potent Bmx inhibitor for the treatment of NSCLC” (Bioorg Med Chem Lett, 2017)
pIC50: −log10 of the molar value.

Key:
A549 = assay: Antiproliferative activity against human A549 cells harboring wild type EGFR after 72 hrs by MTT assay; type: functional, cell-based; conditions: A549, 72 h
Mus musculus [1] = assay: Toxicity in nude mouse xenografted with human NCI-H1975 cells assessed as body weight loss at 25 mg/kg administered qd via oral gavage measured every 2 days up to 18 days; type: organism-based; conditions: in vivo
[2] = molecular target: Cytoplasmic tyrosine-protein kinase BMX (Homo sapiens, UniProt P51813); assay: Inhibition of recombinant human full length N-terminal His6-tagged BMX expressed in Sf21 cells preincubated for 5 mins followed by biotinyl-beta Abeta Abeta AEEEPQYEEIPIYLELLP substrate addition after 30 to 60 mins in presence of ATP by fluorescence assay
[3] = molecular target: Tyrosine-protein kinase BTK (Homo sapiens, UniProt Q06187); assay: Inhibition of recombinant human full length N-terminal His6-tagged BTK expressed in baculovirus Sf21 insect cells preincubated for 5 mins followed by LSNLYHQGKFLQT substrate addition after 30 to 60 mins in presence of ATP by fluorescence assay
[4] = molecular target: Tyrosine-protein kinase Tec (Homo sapiens, UniProt P42680); assay: Inhibition of recombinant human N-terminal His6-tagged TEC (174 to end residues) expressed in baculovirus Sf21 insect cells preincubated for 5 mins followed by Ulight-TK peptide substrate addition after 30 to 60 mins in presence of ATP by fluorescence assay
[5] = molecular target: Dual specificity mitogen-activated protein kinase kinase 7 (Homo sapiens, UniProt O14733); assay: Inhibition of recombinant human N-terminal GST-tagged MKK7beta (2 to end residues) expressed in Escherichia coli preincubated for 5 mins followed by substrate addition after 30 to 60 mins in presence of ATP by fluorescence assay
[6] = molecular target: Proto-oncogene tyrosine-protein kinase Src (Homo sapiens, UniProt P12931); assay: Inhibition of recombinant human full length N-terminal His6-tagged SRC expressed in Sf21 insect cells preincubated for 5 mins followed by substrate addition after 30 to 60 mins in presence of ATP by fluorescence assay
[7] = molecular target: Tyrosine-protein kinase Lyn (Homo sapiens, UniProt P07948); assay: Inhibition of recombinant human full length N-terminal His6-tagged LYN expressed in Sf21 insect cells preincubated for 5 mins followed by […] substrate addition after 30 to 60 mins in presence of ATP by fluorescence assay
[8] = molecular target: Tyrosine-protein kinase FRK (Homo sapiens, UniProt P42685); assay: Inhibition of recombinant human N-terminal His6-tagged FRK (218 to end residues) expressed in baculovirus Sf21 insect cells preincubated for 5 mins followed by substrate addition after 30 to 60 mins in presence of ATP by fluorescence assay
[9] = molecular target: Tyrosine-protein kinase Fyn (Homo sapiens, UniProt P06241); assay: Inhibition of recombinant human full length N-terminal His6-tagged FYN expressed in baculovirus Sf21 insect cells preincubated for 5 mins followed by biotinyl-beta Abeta Abeta AYQAEENTYDEYEN substrate addition after 30 to 60 mins in presence of ATP by fluorescence assay
[10] = molecular target: Protein-tyrosine kinase 6 (Homo sapiens, UniProt Q13882); assay: Inhibition of recombinant human full length N-terminal His6-tagged BRK expressed in baculovirus Sf21 insect cells preincubated for 5 mins followed by substrate addition after 30 to 60 mins in presence of ATP by fluorescence assay
[11] = molecular target: Receptor-type tyrosine-protein kinase FLT3 (Homo sapiens, UniProt P36888); assay: Inhibition of recombinant human N-terminal GST-tagged FLT3 (564 to end residues) expressed in expressed in Sf21 cells preincubated for 5 mins followed by substrate addition after 30 to 60 mins in presence of ATP by fluorescence assay
[12] = molecular target: Macrophage colony-stimulating factor 1 receptor (Homo sapiens, UniProt P07333); assay: Inhibition of recombinant human N-terminal His6-tagged FMS (538 to end residues) expressed in baculovirus Sf21 insect cells preincubated for 5 mins followed by substrate addition after 30 to 60 mins in presence of ATP by fluorescence assay
[13] = molecular target: Serine/threonine-protein kinase Nek2 (Homo sapiens, UniProt P51955); assay: Inhibition of recombinant human full length N-terminal His6-tagged NEK2 expressed in baculovirus Sf21 insect cells preincubated for 5 mins followed by substrate addition after 30 to 60 mins in presence of ATP by fluorescence assay
Homo sapiens [14] = species on record: Homo sapiens; assay: Selectivity ratio of IC50 for recombinant human N-terminal His6-tagged TXK (256 to end residues) to IC50 for human full length N-terminal His6-tagged BMX
Homo sapiens [15] = species on record: Homo sapiens; assay: Selectivity ratio of IC50 for recombinant human N-terminal His6-tagged EGFR (696 to end residues) to IC50 for human full length N-terminal His6-tagged BMX
Homo sapiens [16] = species on record: Homo sapiens; assay: Selectivity ratio of IC50 for recombinant human N-terminal His6-tagged JAK3 (781 to end residues) to IC50 for human full length N-terminal His6-tagged BMX
Homo sapiens [17] = species on record: Homo sapiens; assay: Selectivity ratio of IC50 for recombinant human N-terminal GST-tagged MKK7beta (2 to end residues) to IC50 for human full length N-terminal His6-tagged BMX
Homo sapiens [18] = species on record: Homo sapiens; assay: Selectivity ratio of IC50 for recombinant human full length N-terminal His6-tagged LCK to IC50 for human full length N-terminal His6-tagged BMX
Homo sapiens [19] = species on record: Homo sapiens; assay: Selectivity ratio of IC50 for recombinant human full length N-terminal His6-tagged FYN to IC50 for human full length N-terminal His6-tagged BMX
Homo sapiens [20] = species on record: Homo sapiens; assay: Selectivity ratio of IC50 for recombinant human N-terminal His6-tagged FRK (218 to end residues) to IC50 for human full length N-terminal His6-tagged BMX
Homo sapiens [21] = species on record: Homo sapiens; assay: Selectivity ratio of IC50 for recombinant human N-terminal His6-tagged ABL (27 to end residues) to IC50 for human full length N-terminal His6-tagged BMX
Homo sapiens [22] = species on record: Homo sapiens; assay: Selectivity ratio of IC50 for recombinant human N-terminal His6-tagged FMS (538 to end residues) to IC50 for human full length N-terminal His6-tagged BMX
Homo sapiens [23] = species on record: Homo sapiens; assay: Selectivity ratio of IC50 for recombinant human N-terminal His6-tagged FER (541 to end residues) to IC50 for human full length N-terminal His6-tagged BMX
Homo sapiens [24] = species on record: Homo sapiens; assay: Selectivity ratio of IC50 for human JAK1 to IC50 for human full length N-terminal His6-tagged BMX
Homo sapiens [25] = species on record: Homo sapiens; assay: Selectivity ratio of IC50 for recombinant human C-terminal His6-tagged JAK2 (808 to end residues) to IC50 for human full length N-terminal His6-tagged BMX
Homo sapiens [26] = species on record: Homo sapiens; assay: Selectivity ratio of IC50 for recombinant human N-terminal His6-tagged PLK1 to IC50 for human full length N-terminal His6-tagged BMX
Mus musculus [27] = assay: Toxicity in nude mouse xenografted with human NCI-H1975 cells assessed as body weight loss at 25 mg/kg administered qd via oral gavage for 18 days measured on day 14; type: organism-based; conditions: in vivo, 432 h
Mus musculus [28] = assay: Toxicity in nude mouse xenografted with human NCI-H1975 cells assessed as adverse effects at 25 mg/kg administered qd via oral gavage for 18 days measured on day 14; type: organism-based; conditions: in vivo, 432 h

Cytoplasmic tyrosine-protein kinase BMX, sequence (P51813 whole entry): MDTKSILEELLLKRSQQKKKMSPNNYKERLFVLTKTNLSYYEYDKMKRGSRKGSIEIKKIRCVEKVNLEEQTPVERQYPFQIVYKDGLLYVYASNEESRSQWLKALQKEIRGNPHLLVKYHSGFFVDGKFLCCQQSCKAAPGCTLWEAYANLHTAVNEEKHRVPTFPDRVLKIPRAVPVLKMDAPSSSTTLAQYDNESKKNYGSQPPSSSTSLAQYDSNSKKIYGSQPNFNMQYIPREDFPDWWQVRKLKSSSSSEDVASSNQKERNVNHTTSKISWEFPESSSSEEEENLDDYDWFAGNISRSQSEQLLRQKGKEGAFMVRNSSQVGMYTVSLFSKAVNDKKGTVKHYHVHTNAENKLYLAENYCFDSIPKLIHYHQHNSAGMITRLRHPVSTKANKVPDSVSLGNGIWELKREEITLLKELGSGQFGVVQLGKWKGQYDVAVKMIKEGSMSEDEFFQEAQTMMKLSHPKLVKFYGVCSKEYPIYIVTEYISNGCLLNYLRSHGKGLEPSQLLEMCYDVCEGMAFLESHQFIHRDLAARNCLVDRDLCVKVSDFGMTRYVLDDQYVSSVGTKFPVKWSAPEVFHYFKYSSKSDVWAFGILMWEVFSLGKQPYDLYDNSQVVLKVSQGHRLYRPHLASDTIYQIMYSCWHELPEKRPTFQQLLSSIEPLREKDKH
Tyrosine-protein kinase Tec, sequence (P42680 whole entry): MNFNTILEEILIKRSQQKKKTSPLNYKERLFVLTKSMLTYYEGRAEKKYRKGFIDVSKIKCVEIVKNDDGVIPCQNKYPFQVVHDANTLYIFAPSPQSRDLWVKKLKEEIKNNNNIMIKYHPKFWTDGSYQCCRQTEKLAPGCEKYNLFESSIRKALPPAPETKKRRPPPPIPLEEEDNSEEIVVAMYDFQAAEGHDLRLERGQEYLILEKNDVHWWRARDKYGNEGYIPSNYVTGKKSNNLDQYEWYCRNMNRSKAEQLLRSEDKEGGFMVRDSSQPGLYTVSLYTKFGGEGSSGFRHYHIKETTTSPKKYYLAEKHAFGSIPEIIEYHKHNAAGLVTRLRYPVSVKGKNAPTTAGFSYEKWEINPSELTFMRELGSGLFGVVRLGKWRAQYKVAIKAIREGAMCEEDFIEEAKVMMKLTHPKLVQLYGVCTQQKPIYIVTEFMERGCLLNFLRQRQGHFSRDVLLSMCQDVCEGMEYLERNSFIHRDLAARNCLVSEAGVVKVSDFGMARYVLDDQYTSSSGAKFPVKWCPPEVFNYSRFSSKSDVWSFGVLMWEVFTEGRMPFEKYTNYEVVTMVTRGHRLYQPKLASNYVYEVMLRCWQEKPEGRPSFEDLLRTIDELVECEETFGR
Tyrosine-protein kinase Lyn, sequence (P07948 whole entry): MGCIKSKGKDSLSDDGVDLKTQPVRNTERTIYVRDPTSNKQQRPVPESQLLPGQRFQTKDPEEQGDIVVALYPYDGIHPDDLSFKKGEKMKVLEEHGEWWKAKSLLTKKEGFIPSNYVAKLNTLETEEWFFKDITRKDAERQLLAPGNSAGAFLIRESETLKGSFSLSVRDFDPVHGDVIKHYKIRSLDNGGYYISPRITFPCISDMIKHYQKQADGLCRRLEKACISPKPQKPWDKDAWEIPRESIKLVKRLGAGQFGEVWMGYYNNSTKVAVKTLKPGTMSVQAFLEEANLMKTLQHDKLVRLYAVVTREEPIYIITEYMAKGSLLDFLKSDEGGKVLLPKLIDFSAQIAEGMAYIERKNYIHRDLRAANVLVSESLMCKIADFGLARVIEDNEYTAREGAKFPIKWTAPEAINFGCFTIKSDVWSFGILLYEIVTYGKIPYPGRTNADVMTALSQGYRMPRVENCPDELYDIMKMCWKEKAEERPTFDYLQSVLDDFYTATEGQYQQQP
Receptor-type tyrosine-protein kinase FLT3, sequence (P36888 whole entry): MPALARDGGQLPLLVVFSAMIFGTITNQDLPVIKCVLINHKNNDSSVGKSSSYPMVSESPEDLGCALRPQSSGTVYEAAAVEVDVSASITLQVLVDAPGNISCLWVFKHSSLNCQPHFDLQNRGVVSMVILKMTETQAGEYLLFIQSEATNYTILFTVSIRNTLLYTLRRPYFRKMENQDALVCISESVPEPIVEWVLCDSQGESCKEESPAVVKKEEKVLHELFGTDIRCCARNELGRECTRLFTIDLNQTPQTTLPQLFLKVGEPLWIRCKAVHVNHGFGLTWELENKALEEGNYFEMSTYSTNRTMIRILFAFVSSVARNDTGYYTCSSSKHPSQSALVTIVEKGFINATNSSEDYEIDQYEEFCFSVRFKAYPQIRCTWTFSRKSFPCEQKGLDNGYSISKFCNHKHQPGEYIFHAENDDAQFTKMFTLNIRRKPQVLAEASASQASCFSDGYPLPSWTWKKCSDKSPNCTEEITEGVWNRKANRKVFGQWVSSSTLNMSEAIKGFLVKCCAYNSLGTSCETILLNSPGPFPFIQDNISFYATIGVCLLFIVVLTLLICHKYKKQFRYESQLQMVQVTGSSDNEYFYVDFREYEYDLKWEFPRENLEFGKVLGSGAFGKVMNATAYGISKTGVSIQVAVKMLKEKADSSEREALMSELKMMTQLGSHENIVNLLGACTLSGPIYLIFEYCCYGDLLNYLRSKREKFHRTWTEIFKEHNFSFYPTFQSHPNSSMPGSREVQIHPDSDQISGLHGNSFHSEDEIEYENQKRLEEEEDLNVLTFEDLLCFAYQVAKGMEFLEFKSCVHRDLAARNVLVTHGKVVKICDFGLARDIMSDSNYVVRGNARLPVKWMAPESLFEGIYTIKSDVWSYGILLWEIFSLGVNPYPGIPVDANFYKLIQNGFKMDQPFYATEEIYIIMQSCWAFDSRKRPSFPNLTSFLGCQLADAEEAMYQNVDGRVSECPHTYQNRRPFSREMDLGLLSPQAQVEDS
Dual specificity mitogen-activated protein kinase kinase 7, sequence (O14733 whole entry): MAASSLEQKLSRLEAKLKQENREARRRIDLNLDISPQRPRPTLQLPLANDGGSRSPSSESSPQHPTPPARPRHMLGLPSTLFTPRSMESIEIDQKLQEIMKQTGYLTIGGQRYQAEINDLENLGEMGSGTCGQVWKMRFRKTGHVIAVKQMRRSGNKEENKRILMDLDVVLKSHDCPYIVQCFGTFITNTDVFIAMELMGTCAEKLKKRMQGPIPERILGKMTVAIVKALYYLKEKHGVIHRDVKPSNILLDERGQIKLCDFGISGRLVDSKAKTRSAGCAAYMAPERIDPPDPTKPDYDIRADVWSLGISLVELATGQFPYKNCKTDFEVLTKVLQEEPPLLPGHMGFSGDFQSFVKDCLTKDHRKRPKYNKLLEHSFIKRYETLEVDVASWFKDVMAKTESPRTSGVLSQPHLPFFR
Macrophage colony-stimulating factor 1 receptor, sequence (P07333 whole entry): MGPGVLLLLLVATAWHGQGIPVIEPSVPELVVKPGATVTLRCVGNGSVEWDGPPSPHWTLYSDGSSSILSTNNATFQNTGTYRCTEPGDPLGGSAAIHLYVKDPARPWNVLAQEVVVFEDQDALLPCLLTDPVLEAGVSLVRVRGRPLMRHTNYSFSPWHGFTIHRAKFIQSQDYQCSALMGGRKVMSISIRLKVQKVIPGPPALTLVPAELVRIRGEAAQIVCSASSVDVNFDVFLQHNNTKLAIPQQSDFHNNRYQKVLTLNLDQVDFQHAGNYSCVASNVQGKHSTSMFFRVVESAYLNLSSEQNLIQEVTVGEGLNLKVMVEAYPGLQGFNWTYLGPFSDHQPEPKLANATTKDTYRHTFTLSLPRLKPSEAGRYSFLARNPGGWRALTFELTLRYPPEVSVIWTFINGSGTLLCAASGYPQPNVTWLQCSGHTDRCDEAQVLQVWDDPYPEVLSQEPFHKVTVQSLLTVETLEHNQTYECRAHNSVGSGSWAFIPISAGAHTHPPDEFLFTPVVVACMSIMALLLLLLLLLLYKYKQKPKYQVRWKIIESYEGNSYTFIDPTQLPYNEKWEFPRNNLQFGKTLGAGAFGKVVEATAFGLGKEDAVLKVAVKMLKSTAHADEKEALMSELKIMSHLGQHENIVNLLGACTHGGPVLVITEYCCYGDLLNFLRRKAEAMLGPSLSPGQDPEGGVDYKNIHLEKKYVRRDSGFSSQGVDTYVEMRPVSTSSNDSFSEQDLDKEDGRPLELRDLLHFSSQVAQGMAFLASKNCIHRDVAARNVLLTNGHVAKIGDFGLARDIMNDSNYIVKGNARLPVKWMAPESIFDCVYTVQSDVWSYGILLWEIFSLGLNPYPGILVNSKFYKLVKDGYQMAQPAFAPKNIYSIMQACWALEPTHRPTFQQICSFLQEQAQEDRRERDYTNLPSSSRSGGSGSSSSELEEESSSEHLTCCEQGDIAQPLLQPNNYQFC
Protein-tyrosine kinase 6, sequence (Q13882 whole entry): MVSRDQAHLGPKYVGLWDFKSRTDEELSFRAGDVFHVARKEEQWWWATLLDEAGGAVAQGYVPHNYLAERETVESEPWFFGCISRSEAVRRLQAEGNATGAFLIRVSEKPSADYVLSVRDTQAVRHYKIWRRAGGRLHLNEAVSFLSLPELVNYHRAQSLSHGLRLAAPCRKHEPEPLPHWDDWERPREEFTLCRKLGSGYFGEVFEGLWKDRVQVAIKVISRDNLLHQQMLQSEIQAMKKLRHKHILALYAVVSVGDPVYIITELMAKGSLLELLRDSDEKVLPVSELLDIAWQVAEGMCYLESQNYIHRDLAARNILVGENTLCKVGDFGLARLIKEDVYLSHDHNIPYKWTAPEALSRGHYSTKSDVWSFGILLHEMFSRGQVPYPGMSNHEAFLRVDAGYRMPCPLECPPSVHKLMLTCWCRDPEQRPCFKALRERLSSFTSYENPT

**Q.** With `C=CS(=O)(=O)N1CCC[C@@H]1Cn1cc(-c2ccc3c(c2)OCO3)c2c(N)ncnc21` as the compound, how does the pIC50 (A549) read?
**A.** The pIC50 was 5.38.

**Q.** What about the Activity (Mus musculus [1]) of the same compound?
**A.** The Activity was “Toxic”.

**Q.** And the pIC50 [2]?
**A.** The pIC50 was 7.45.

**Q.** And the pIC50 [3]?
**A.** The pIC50 was 7.05.

**Q.** And the pIC50 [4]?
**A.** Its pIC50 is 6.94.

**Q.** What about the pIC50 [5] of the same compound?
**A.** The pIC50 was 6.72.

**Q.** What about the pIC50 [6] of the same compound?
**A.** Its pIC50 is 6.71.

**Q.** What about the pIC50 [7] of the same compound?
**A.** Its pIC50 is 6.51.

**Q.** And the pIC50 [8]?
**A.** Its pIC50 is 6.29.

**Q.** And the pIC50 [9]?
**A.** The pIC50 was 6.37.

**Q.** And the pIC50 [10]?
**A.** The pIC50 was 6.66.

**Q.** And the pIC50 [11]?
**A.** The pIC50 was 5.48.

**Q.** And the pIC50 [12]?
**A.** The pIC50 was 5.33.

**Q.** And the pIC50 [13]?
**A.** Its pIC50 is < 5.00.

**Q.** What about the Ratio IC50 (Homo sapiens [14]) of the same compound?
**A.** The Ratio IC50 was 25.7.

**Q.** And the Ratio IC50 (Homo sapiens [15])?
**A.** Its Ratio IC50 is 18.

**Q.** What about the Ratio IC50 (Homo sapiens [16]) of the same compound?
**A.** The Ratio IC50 was 229.

**Q.** And the Ratio IC50 (Homo sapiens [17])?
**A.** The Ratio IC50 was 5.3.

**Q.** And the Ratio IC50 (Homo sapiens [18])?
**A.** Its Ratio IC50 is 5.5.

**Q.** And the Ratio IC50 (Homo sapiens [19])?
**A.** The Ratio IC50 was 12.

**Q.** What about the Ratio IC50 (Homo sapiens [20]) of the same compound?
**A.** Its Ratio IC50 is 14.3.

**Q.** And the Ratio IC50 (Homo sapiens [21])?
**A.** The Ratio IC50 was 22.5.

**Q.** And the Ratio IC50 (Homo sapiens [22])?
**A.** Its Ratio IC50 is 114.

**Q.** And the Ratio IC50 (Homo sapiens [23])?
**A.** Its Ratio IC50 is 166.

**Q.** What about the Ratio IC50 (Homo sapiens [24]) of the same compound?
**A.** The Ratio IC50 was > 280.

**Q.** And the Ratio IC50 (Homo sapiens [25])?
**A.** Its Ratio IC50 is > 280.

**Q.** What about the Ratio IC50 (Homo sapiens [26]) of the same compound?
**A.** The Ratio IC50 was > 280.

**Q.** What about the Activity (Mus musculus [27]) of the same compound?
**A.** The Activity was “Non-Toxic”.

**Q.** What about the Activity (Mus musculus [28]) of the same compound?
**A.** Its Activity is “Non-Toxic”.
